Experimental data reported in patent US20260262643A1, “HERBICIDAL BENZOXAZINES” (FMC CORPORATION, priority 2022, published 2026).

Tests used:
[1] = system: barnyardgrass; assay: Test C preemergence; assay type: in vivo, Echinochloa crusgalli; conditions: preemergence, 0 to 100 scale (0 no effect, 100 complete control)
Procedure, shortened: (§1)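 Seeds in loam–sand blend received preemergence directed soil spray of test chemicals in non-phytotoxic solvent with surfactant; postemergence treatment was applied at one- to two-leaf stage (2–10 cm). After 10 days in greenhouse, injury rated visually versus untreated controls, 0 (no effect) to 100 (complete control).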

[2] = system: blackgrass; assay: Test C preemergence; assay type: in vivo, Alopecurus myosuroides; conditions: preemergence, 0 to 100 scale (0 no effect, 100 complete control)
Procedure, shortened: as §1

[3] = system: corn; assay: Test C preemergence; assay type: in vivo, Zea mays; conditions: preemergence, 0 to 100 scale (0 no effect, 100 complete control)
Procedure, shortened: as §1

[4] = system: green foxtail; assay: Test C preemergence; assay type: in vivo, Setaria viridis; conditions: preemergence, 0 to 100 scale (0 no effect, 100 complete control)
Procedure, shortened: as §1

[5] = system: kochia; assay: Test C preemergence; assay type: in vivo, Bassia scoparia; conditions: preemergence, 0 to 100 scale (0 no effect, 100 complete control)
Procedure, shortened: as §1

[6] = system: oat, wild; assay: Test C preemergence; assay type: in vivo, Avena fatua; conditions: preemergence, 0 to 100 scale (0 no effect, 100 complete control)
Procedure, shortened: as §1

[7] = system: pigweed, palmer; assay: Test C preemergence; assay type: in vivo, Amaranthus palmeri; conditions: preemergence, 0 to 100 scale (0 no effect, 100 complete control)
Procedure, shortened: as §1

[8] = system: ragweed; assay: Test C preemergence; assay type: in vivo, Ambrosia artemisiifolia; conditions: preemergence, 0 to 100 scale (0 no effect, 100 complete control)
Procedure, shortened: as §1

[9] = system: ryegrass, Italian; assay: Test C preemergence; assay type: in vivo, Lolium multiflorum; conditions: preemergence, 0 to 100 scale (0 no effect, 100 complete control)
Procedure, shortened: as §1

[10] = system: soybean; assay: Test C preemergence; assay type: in vivo, Glycine max; conditions: preemergence, 0 to 100 scale (0 no effect, 100 complete control)
Procedure, shortened: as §1

[11] = system: wheat; assay: Test C preemergence; assay type: in vivo, Triticum aestivum; conditions: preemergence, 0 to 100 scale (0 no effect, 100 complete control)
Procedure, shortened: as §1

[12] = system: barnyardgrass; assay: Test C postemergence; assay type: in vivo, Echinochloa crusgalli; conditions: 10 days, 0 to 100 scale (0 no effect, 100 complete control)
Procedure, shortened: as §1

[13] = system: blackgrass; assay: Test C postemergence; assay type: in vivo, Alopecurus myosuroides; conditions: 10 days, 0 to 100 scale (0 no effect, 100 complete control)
Procedure, shortened: as §1

[14] = system: corn; assay: Test C postemergence; assay type: in vivo, Zea mays; conditions: 10 days, 0 to 100 scale (0 no effect, 100 complete control)
Procedure, shortened: as §1

[15] = system: green foxtail; assay: Test C postemergence; assay type: in vivo, Setaria viridis; conditions: 10 days, 0 to 100 scale (0 no effect, 100 complete control)
Procedure, shortened: as §1

[16] = system: kochia; assay: Test C postemergence; assay type: in vivo, Bassia scoparia; conditions: 10 days, 0 to 100 scale (0 no effect, 100 complete control)
Procedure, shortened: as §1

[17] = system: oat, wild; assay: Test C postemergence; assay type: in vivo, Avena fatua; conditions: 10 days, 0 to 100 scale (0 no effect, 100 complete control)
Procedure, shortened: as §1

[18] = system: pigweed, palmer; assay: Test C postemergence; assay type: in vivo, Amaranthus palmeri; conditions: 10 days, 0 to 100 scale (0 no effect, 100 complete control)
Procedure, shortened: as §1

[19] = system: ragweed; assay: Test C postemergence; assay type: in vivo, Ambrosia artemisiifolia; conditions: 10 days, 0 to 100 scale (0 no effect, 100 complete control)
Procedure, shortened: as §1

[20] = system: ryegrass, Italian; assay: Test C postemergence; assay type: in vivo, Lolium multiflorum; conditions: 10 days, 0 to 100 scale (0 no effect, 100 complete control)
Procedure, shortened: as §1

[21] = system: soybean; assay: Test C postemergence; assay type: in vivo, Glycine max; conditions: 10 days, 0 to 100 scale (0 no effect, 100 complete control)
Procedure, shortened: as §1

[22] = system: wheat; assay: Test C postemergence; assay type: in vivo, Triticum aestivum; conditions: 10 days, 0 to 100 scale (0 no effect, 100 complete control)
Procedure, shortened: as §1

[23] = system: galium; assay: Test C postemergence; assay type: in vivo, Galium aparine; conditions: 10 days, 0 to 100 scale (0 no effect, 100 complete control)
Procedure, shortened: as §1

[24] = system: horseweed; assay: Test C postemergence; assay type: in vivo, Erigeron canadensis; conditions: 10 days, 0 to 100 scale (0 no effect, 100 complete control)
Procedure, shortened: as §1

[25] = system: barnyardgrass; assay: Test D flooded paddy test; assay type: in vivo, Echinochloa crus-galli; conditions: 250 g ai/ha, applied to paddy water, visual rating after 13 to 14 days, scale 0 to 100 (0 no effect, 100 complete control)
Procedure, shortened: (§2)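 At the 2-leaf stage, floodwater 3 cm deep received the test compound; that depth persisted throughout. Plants scored visually 13 to 14 days on, 0 (no effect) to 100 (complete control), dash indicating no result.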

[26] = system: ducksalad; assay: Test D flooded paddy test; assay type: in vivo, Heteranthera limosa; conditions: 250 g ai/ha, applied to paddy water, visual rating after 13 to 14 days, scale 0 to 100 (0 no effect, 100 complete control)
Procedure, shortened: as §2

[27] = system: rice; assay: Test D flooded paddy test; assay type: in vivo, Oryza sativa; conditions: 250 g ai/ha, applied to paddy water, visual rating after 13 to 14 days, scale 0 to 100 (0 no effect, 100 complete control)
Procedure, shortened: as §2

[28] = system: sedge, umbrella; assay: Test D flooded paddy test; assay type: in vivo, Cyperus difformis; conditions: 250 g ai/ha, applied to paddy water, visual rating after 13 to 14 days, scale 0 to 100 (0 no effect, 100 complete control)
Procedure, shortened: as §2

COc1ncn(-c2cccc(C(=O)N3C[C@H](C)Oc4c(Cl)cccc43)c2)n1 [Compound 310]
60: Oat, Wild plant response rating ([6]; 500 g ai/ha) | Plant response rating, Corn ([14]; 500 g ai/ha, postemergence)
75: Plant response rating, Ducksalad (Flood) [26]
20: Barnyardgrass plant response rating ([1]; Test C, 125 g ai/ha) | Plant response rating, Barnyardgrass ([12]; Postemergence, 125 g ai/ha)
40: Soybean plant response rating ([10]; Test C, 125 g ai/ha) | Plant response rating, Oat, Wild ([17]; 500 g ai/ha, postemergence)
10: Blackgrass plant response rating ([2]; Test C, 125 g ai/ha) | Plant response rating, Corn ([14]; Postemergence, 125 g ai/ha) | Plant response rating, Wheat ([22]; Postemergence, 125 g ai/ha) | Plant response rating, Barnyardgrass (Flood) [25]
100: Foxtail, Green plant response rating ([4]; 500 g ai/ha) | Foxtail, Green plant response rating ([4]; Test C, 125 g ai/ha) | Pigweed, Palmer plant response rating ([7]; 500 g ai/ha) | Plant response rating, Soybean ([21]; 500 g ai/ha, postemergence)
50: Blackgrass plant response rating ([2]; 500 g ai/ha) | Kochia plant response rating ([5]; Test C, 125 g ai/ha) | Plant response rating, Blackgrass ([13]; Postemergence, 125 g ai/ha) | Plant response rating, Foxtail, Green ([15]; 500 g ai/ha, postemergence) | Plant response rating, Foxtail, Green ([15]; Postemergence, 125 g ai/ha) | Plant response rating, Ragweed ([19]; 500 g ai/ha, postemergence) | Plant response rating, Wheat ([22]; 500 g ai/ha, postemergence)
30: Ryegrass, Italian plant response rating ([9]; Test C, 125 g ai/ha) | Plant response rating, Ragweed ([19]; Postemergence, 125 g ai/ha) | Plant response rating, Ryegrass, Italian ([20]; Postemergence, 125 g ai/ha) | Plant response rating, Horseweed ([24]; 500 g ai/ha, postemergence)
80: Barnyardgrass plant response rating ([1]; 500 g ai/ha) | Kochia plant response rating ([5]; 500 g ai/ha) | Pigweed, Palmer plant response rating ([7]; Test C, 125 g ai/ha) | Ryegrass, Italian plant response rating ([9]; 500 g ai/ha) | Plant response rating, Barnyardgrass ([12]; 500 g ai/ha, postemergence) | Plant response rating, Ryegrass, Italian ([20]; 500 g ai/ha, postemergence) | Plant response rating, Sedge, Umbrella (Flood) [28]
70: Plant response rating, Kochia ([16]; Postemergence, 125 g ai/ha) | Plant response rating, Pigweed, Palmer ([18]; Postemergence, 125 g ai/ha)
90: Plant response rating, Blackgrass ([13]; 500 g ai/ha, postemergence) | Plant response rating, Kochia ([16]; 500 g ai/ha, postemergence) | Plant response rating, Pigweed, Palmer ([18]; 500 g ai/ha, postemergence) | Plant response rating, Soybean ([21]; Postemergence, 125 g ai/ha) | Plant response rating, Galium ([23]; 500 g ai/ha, postemergence) | Plant response rating, Galium ([23]; Postemergence, 125 g ai/ha)
0: Corn plant response rating ([3]; 500 g ai/ha) | Corn plant response rating ([3]; Test C, 125 g ai/ha) | Oat, Wild plant response rating ([6]; Test C, 125 g ai/ha) | Ragweed plant response rating ([8]; 500 g ai/ha) | Ragweed plant response rating ([8]; Test C, 125 g ai/ha) | Soybean plant response rating ([10]; 500 g ai/ha) | Wheat plant response rating ([11]; 500 g ai/ha) | Wheat plant response rating ([11]; Test C, 125 g ai/ha) | Plant response rating, Oat, Wild ([17]; Postemergence, 125 g ai/ha) | Plant response rating, Horseweed ([24]; Postemergence, 125 g ai/ha) | Plant response rating, Rice (Flood) [27]

CC(C)Oc1ncn(-c2cccc(C(=O)N3C[C@H](C)Oc4c(Cl)cccc43)c2)n1 [Compound 312]
0: Barnyardgrass plant response rating ([1]; Test C, 125 g ai/ha) | Corn plant response rating ([3]; Test C, 125 g ai/ha) | Kochia plant response rating ([5]; Test C, 125 g ai/ha) | Oat, Wild plant response rating ([6]; Test C, 125 g ai/ha) | Ragweed plant response rating ([8]; 500 g ai/ha) | Ragweed plant response rating ([8]; Test C, 125 g ai/ha) | Soybean plant response rating ([10]; Test C, 125 g ai/ha) | Wheat plant response rating ([11]; Test C, 125 g ai/ha) | Plant response rating, Blackgrass ([13]; Postemergence, 125 g ai/ha) | Plant response rating, Foxtail, Green ([15]; Postemergence, 125 g ai/ha) | Plant response rating, Oat, Wild ([17]; 500 g ai/ha, postemergence) | Plant response rating, Oat, Wild ([17]; Postemergence, 125 g ai/ha) | Plant response rating, Ragweed ([19]; Postemergence, 125 g ai/ha) | Plant response rating, Horseweed ([24]; 500 g ai/ha, postemergence) | Plant response rating, Horseweed ([24]; Postemergence, 125 g ai/ha) | Plant response rating, Barnyardgrass (Flood) [25] | Plant response rating, Ducksalad (Flood) [26] | Plant response rating, Rice (Flood) [27] | Plant response rating, Sedge, Umbrella (Flood) [28]
100: Plant response rating, Soybean ([21]; 500 g ai/ha, postemergence)
20: Kochia plant response rating ([5]; 500 g ai/ha) | Pigweed, Palmer plant response rating ([7]; Test C, 125 g ai/ha) | Plant response rating, Foxtail, Green ([15]; 500 g ai/ha, postemergence) | Plant response rating, Kochia ([16]; Postemergence, 125 g ai/ha)
80: Blackgrass plant response rating ([2]; 500 g ai/ha) | Foxtail, Green plant response rating ([4]; Test C, 125 g ai/ha) | Ryegrass, Italian plant response rating ([9]; 500 g ai/ha) | Plant response rating, Kochia ([16]; 500 g ai/ha, postemergence) | Plant response rating, Soybean ([21]; Postemergence, 125 g ai/ha) | Plant response rating, Galium ([23]; 500 g ai/ha, postemergence)
50: Blackgrass plant response rating ([2]; Test C, 125 g ai/ha) | Plant response rating, Pigweed, Palmer ([18]; 500 g ai/ha, postemergence)
40: Barnyardgrass plant response rating ([1]; 500 g ai/ha) | Plant response rating, Blackgrass ([13]; 500 g ai/ha, postemergence) | Plant response rating, Ragweed ([19]; 500 g ai/ha, postemergence)
60: Plant response rating, Galium ([23]; Postemergence, 125 g ai/ha)
10: Corn plant response rating ([3]; 500 g ai/ha) | Soybean plant response rating ([10]; 500 g ai/ha) | Wheat plant response rating ([11]; 500 g ai/ha) | Plant response rating, Barnyardgrass ([12]; 500 g ai/ha, postemergence) | Plant response rating, Barnyardgrass ([12]; Postemergence, 125 g ai/ha) | Plant response rating, Corn ([14]; 500 g ai/ha, postemergence) | Plant response rating, Corn ([14]; Postemergence, 125 g ai/ha) | Plant response rating, Pigweed, Palmer ([18]; Postemergence, 125 g ai/ha) | Plant response rating, Wheat ([22]; 500 g ai/ha, postemergence) | Plant response rating, Wheat ([22]; Postemergence, 125 g ai/ha)
30: Plant response rating, Ryegrass, Italian ([20]; 500 g ai/ha, postemergence) | Plant response rating, Ryegrass, Italian ([20]; Postemergence, 125 g ai/ha)
90: Foxtail, Green plant response rating ([4]; 500 g ai/ha)
70: Oat, Wild plant response rating ([6]; 500 g ai/ha) | Pigweed, Palmer plant response rating ([7]; 500 g ai/ha) | Ryegrass, Italian plant response rating ([9]; Test C, 125 g ai/ha)
